Experimental findings from patent US5128362A, “1-aminomethyl-1,2,3,4-tetrahydronaphthalenes” (Abbott Laboratories, priority 1990, dated 1992) are described below.

The target of assay [1] is T1, alpha 2 receptor (Rattus norvegicus, UniProt P22909).
T1 construct: rat cerebral cortices; from tissue; host or cells: rat cerebral cortices
T1 sequence (P22909 1-465): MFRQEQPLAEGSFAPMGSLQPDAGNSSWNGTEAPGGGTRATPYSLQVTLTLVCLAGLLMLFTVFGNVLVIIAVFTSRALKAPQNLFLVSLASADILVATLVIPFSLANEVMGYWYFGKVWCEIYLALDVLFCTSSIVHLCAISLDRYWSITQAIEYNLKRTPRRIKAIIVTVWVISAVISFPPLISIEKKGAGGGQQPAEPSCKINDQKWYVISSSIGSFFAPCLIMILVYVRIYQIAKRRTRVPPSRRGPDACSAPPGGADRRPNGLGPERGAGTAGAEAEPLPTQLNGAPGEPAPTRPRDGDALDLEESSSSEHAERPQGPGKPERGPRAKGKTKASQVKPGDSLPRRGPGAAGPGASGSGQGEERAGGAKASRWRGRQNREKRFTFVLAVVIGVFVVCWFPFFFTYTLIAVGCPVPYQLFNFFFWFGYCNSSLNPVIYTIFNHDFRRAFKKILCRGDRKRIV
The experiment in a line: Radioligand binding, [3H]rauwolscine, rat cerebral cortices. As to conditions: read-out: Ki alpha-2. The procedure:
(§1) The compounds were assessed for alpha-adrenergic receptor subtype selectivity by use of radioligand binding techniques as described previously (DeBernardis et. al. J. Med. Chem. 28, 1398 (1985)).

Assay [2] has as its system alpha 2 receptor. The description is as above. As to conditions: Ki alpha 1/Ki alpha-2. The procedure: as §1

Where a name gives a salt, the structure may show the parent alone.

Turning to `COc1ccc2c(c1)CCC2CN1CCC(c2cccs2)C1` (stereo not shown) [Example 151, 5-Methoxy-1-(3-(2-thienyl)pyrrolidino-1-methyl) indane hydrochloride], the Ki on alpha 2 receptor [1] turned out to be 2.5 nM. Further, the “alpha-2 - Selectivity Ki alpha 1/Ki alpha-2” value with alpha 2 receptor [2] is on record as 71. The matching figures for `COc1ccc2c(c1)CCCC2CN1CCC(c2ccccc2)C1` (stereo not shown) [Example 121, 6-Methoxy-1-(3-phenylpyrrolidino-1-methyl) tetralin hydrochloride]: 1 nM and 95. On the same counts, the results for `COc1ccc2c(c1)CCCC2CN(C)CCC1CCCS1` (stereo not shown) [Example 6h, 1-((N-methylamino)methyl-N-(2-(2-tetrahydrothienyl)ethyl)) 6-methoxy tetralin hydrochloride] are 3.5 nM and 430. With `COc1ccc2c(c1)CCCC2CN(C)CCc1cccn1C` (stereo not shown) [Example 12, 1-((N-Methylamino)methyl-N-(2-(N-methyl-2-pyrrolyl)-ethyl))-6-methoxy tetralin fumarate], the inhibitory constant (Ki) at alpha 2 receptor [1] was 5 nM. Consider `CN(CCc1cccc(F)c1)CC1CCCc2c1ccc1c2OCCO1` (stereo not shown) [Example 167, 1-((N-Methylamino)methyl-N-(2-m-fluorophenethyl))-5,6-ethylenedioxy tetralin methanesulfonate], for which the Ki on alpha 2 receptor [1] worked out at 4.2 nM. Further, the “alpha-2 - Selectivity Ki alpha 1/Ki alpha-2” value in the assay with alpha 2 receptor [2] came out at 85.

Take `COc1ccc2c(c1)CCC2CN1CCC(c2cccc(F)c2)C1` (stereo not shown) [Example 153, 5-Methoxy-1-(3-(m-fluorophenyl)pyrrolidino-1-methyl) indane hydrochloride]: the Ki on alpha 2 receptor [1] turned out to be 8.6 nM. In addition, the “alpha-2 - Selectivity Ki alpha 1/Ki alpha-2” value in the assay on alpha 2 receptor [2] is 7. In the case of `COc1ccc2c(c1)CCCC2CN(C)CCc1cccc(N)c1` (stereo not shown) [Example 67, 1-((N-Methylamino)methyl-N-(2-(m-aminophenyl)ethyl))-6-methoxy tetralin dihydrochloride], at alpha 2 receptor [1], the Ki came to 6 nM. Same read-out and setting: the value for `CN(CCc1cccs1)CC1CCCc2c1ccc1c2OCO1` (stereo not shown) [Example 23, 1-((N-Methylamino)methyl-N-(2-(2-thienyl)ethyl))-5,6-methylenedioxy tetralin hydrochloride] was 1.7 nM; that for `CN(CCc1cccs1)CC1CCCc2cc(O)ccc21` (stereo not shown) [Example 7, 1-((N-Methylamino)methyl-N-(2-(2-thienyl)ethyl))-6-hydroxy tetralin hydrochloride] was 1.6 nM; that for `CN(CCc1cccc(O)c1)CC1CCCc2cc(O)ccc21` (stereo not shown) [Example 82, 1-((N-Methylamino)methyl-N-(2-(m-hydroxyphenyl)ethyl))-6-hydroxy tetralin hydrochloride] was 4 nM.

In the case of `CN(CCc1ccccc1)CC1CCCc2cc(N)ccc21` (stereo not shown) [Example 114, 1-((N-Methylaminomethyl-N-(2-phenylethyl))-6-aminotetralindihydrochloride], on alpha 2 receptor [1], the Ki was found to be 5.7 nM.

Regarding `c1csc(C2CCN(CC3CCCc4c3ccc3c4OCO3)C2)c1` (stereo not shown) [Example 144, 5,6-Methylenedioxy-1-(3-(2-thienyl)pyrrolidino-1-methyl) tetralin methanesulfonate], on alpha 2 receptor [1], the inhibition constant Ki turned out to be 1.2 nM. In the case of `CN(CCc1cccc(F)c1)CC1CCCc2c1ccc(O)c2O` (stereo not shown) [Example 85, 1-((N-Methylamino)methyl-N-(2-(m-fluorophenyl)ethyl))-5,6-dihydroxy tetralin hydrochloride], on alpha 2 receptor [1], the Ki amounted to 1.5 nM.

With `COc1ccc2c(c1)CCCC2CN(C)CCc1cccc(F)c1` (stereo not shown) [Example 6b, 1-((N-methylamino)methyl-N-(2-(m-fluorophenyl)ethyl))-6-methoxy tetralin hydrochloride], the inhibitory constant (Ki) at alpha 2 receptor [1] came out at 5 nM. Take `CN(CCc1cccs1)CC1CCCc2c(Cl)cccc21` (stereo not shown) [Example 129, 1-((N-Methylamino)methyl-N-(2-(2-thieny)ethyl))-5-chloro tetralin hydrochloride]: the Ki at alpha 2 receptor [1] was 3.6 nM. For the same compound, in the assay with alpha 2 receptor [2], the “alpha-2 - Selectivity Ki alpha 1/Ki alpha-2” value stood at 55. Take `Fc1ccc2c(c1)CCCC2CN1CCC(c2ccccc2)C1` (stereo not shown) [Example 148, 6-Fluoro-1-(3-phenylpyrrolidino-1-methyl) tetralin methanesulfonate]: at alpha 2 receptor [1], the Ki turned out to be 6.5 nM. Further, in the assay with alpha 2 receptor [2], the “alpha-2 - Selectivity Ki alpha 1/Ki alpha-2” value was determined as 19. In the case of `COc1cc2c(cc1C)C(CN(C)CCc1ccco1)CCC2` (stereo not shown) [Example 128, 1-((N-Methylamino)methyl-N-(2-(2-furyl)ethyl))-methoxy-7-methyl tetralin hydrochloride], the Ki on alpha 2 receptor [1] was 8 nM. For `CN(c1ccc2c(c1)CCCC2CN1CCC(c2ccccc2)C1)S(C)(=O)=O` (stereo not shown) [Example 193, 6-(N-methylmethylsulfonamido)-1-(3-phenylpyrrolidino-1-methyl)tetralin hydrochloride], on alpha 2 receptor [1], the Ki came to 1.3 nM. Also, the “alpha-2 - Selectivity Ki alpha 1/Ki alpha-2” value with alpha 2 receptor [2] is reported as 93. As to `CCN(CCc1ccco1)CC1CCCc2cc(OC)ccc21` (stereo not shown) [Example 43, 1-((N-Ethylamino)methyl-N-(2-(2-furyl)ethyl))-6-methoxy tetralin hydrochloride], the Ki at alpha 2 receptor [1] worked out at 6 nM. Still for that read-out and setting: under `CN(CCc1cccc(F)c1)CC1CCCc2c1ccc1c2OCO1` (stereo not shown) [Example 166, 1-((N-Methylamino)methyl-N-(2-m-fluorophenethyl))-5,6-methylenedioxy tetralin methanesulfonate] stands 4.5 nM; under `CCN(CCc1cccs1)CC1CCCc2c1ccc1c2OCCO1` (stereo not shown) [Example 168, 1-((N-Ethylamino)methyl-N-(2-(2-thienyl)ethyl))-5,6-ethylenedioxy tetralin hydrochloride], 6.6 nM; under `COc1ccc2c(c1)C(CN(C)CCc1cccs1)CCC2` (stereo not shown) [Example 27, 1-((N-Methylamino)methyl-N-(2-(2-thienyl)ethyl))-7-methoxy tetralin hydrochloride], 2 nM. Same read-out and setting: under `CN(CCc1cccs1)CC1CCCc2c1ccc(O)c2O` (stereo not shown) [Example 87, 1-((N-Methylamino)methyl-N-(2-(2-thienyl)ethyl))-5,6-dihydroxy tetralin hydrochloride] stands 1.6 nM. Still for that read-out and setting: under `CN(CCc1ccccc1)CC1CCCc2ccccc21` (stereo not shown) [Example 88, 1-((N-Methylamino)methyl-N-(2-phenethyl)) tetralin hydrochloride] stands 2 nM; under `CCN(CCc1ccsc1)CC1CCCc2cc(OC)ccc21` (stereo not shown) [Example 44, 1-((N-Ethylamino)methyl-N-(2-(3-thienyl)ethyl))-6-methoxy tetralin hydrochloride], 5.6 nM; under `Fc1ccccc1C1CCN(CC2CCCc3c2ccc2c3OCO2)C1` (stereo not shown) [Example 176a, 5.6-Methylenedioxy-1-(3-(o-fluorophenyl)pyrrolidino-1-methyl) tetralin methanesulfonate], 0.6 nM. As to `CN(CCc1cccc(N)c1)CC1CCCc2cc(O)ccc21` (stereo not shown) [Example 68, 1-((N-Methylamino)methyl-N-(2-(m-aminophenyl)ethyl))-6-hydroxy tetralin dihydrobromide], on alpha 2 receptor [1], the Ki worked out at 6 nM. As for `CN(CCc1cccs1)CC1CCCc2c1ccc1c2OCCO1` (stereo not shown) [Example 30, 1-((N-Methylamino)methyl-N-(2-(2-thienyl)ethyl))-5,6-ethylenedioxy tetralin hydrochloride], on alpha 2 receptor [1], the Ki was 4 nM. On the same count and under the same terms, the value for `COc1ccc2c(c1)CCC2CN(C)CCc1cccs1` (stereo not shown) [Example 37, 1-((N-Methylamino)methyl-N-(2-(2-thienyl)ethyl))-5-methoxy indane hydrochloride] was 3.7 nM.

Broadly, the Ki is a dissociation constant, usually derived from enzyme kinetics or from competition with a known ligand.
